Assay results taken from patent publication US20170319563A1, “STEROID-FREE DISEASE MANAGEMENT” (Asana BioSciences, LLC, priority 2014, published 2017).
pEC50, pIC50: −log10 of the molar value. Where two headings read alike, the source gives them in different places.

Key:
[1] = Food effect and bioavailability in rats; assay type: in vivo, rat
Source text: Accordingly, the dosage forms, regimens and methods of administration described herein may be accomplished on humans in the fed or fasted state and with food or without. Thus, the methods described herein could include administration of a therapeutically effective amount of ASN001, as a substantially pure enantiomer, as a mixture or as a racemic mixture, which is “food indifferent” which means with or without food to a patient in a fed or fasted state. Examples include, without limitation, with food, to a patient who has consumed food in the last two hours, without food, and/or to a patient who has not eaten in the last two hours.

CYP17 C17,20-lyase [2] = target: T1, CYP17 C17,20-lyase (Homo sapiens, UniProt P05093); assay: CYP17 lyase assay in human testicular microsomes; assay type: biochemical
T1 construct: These cells have intact testosterone synthesis pathway; host or cells: NCI-H295R human adrenocortical carcinoma cells
T1 sequence (P05093 1-508): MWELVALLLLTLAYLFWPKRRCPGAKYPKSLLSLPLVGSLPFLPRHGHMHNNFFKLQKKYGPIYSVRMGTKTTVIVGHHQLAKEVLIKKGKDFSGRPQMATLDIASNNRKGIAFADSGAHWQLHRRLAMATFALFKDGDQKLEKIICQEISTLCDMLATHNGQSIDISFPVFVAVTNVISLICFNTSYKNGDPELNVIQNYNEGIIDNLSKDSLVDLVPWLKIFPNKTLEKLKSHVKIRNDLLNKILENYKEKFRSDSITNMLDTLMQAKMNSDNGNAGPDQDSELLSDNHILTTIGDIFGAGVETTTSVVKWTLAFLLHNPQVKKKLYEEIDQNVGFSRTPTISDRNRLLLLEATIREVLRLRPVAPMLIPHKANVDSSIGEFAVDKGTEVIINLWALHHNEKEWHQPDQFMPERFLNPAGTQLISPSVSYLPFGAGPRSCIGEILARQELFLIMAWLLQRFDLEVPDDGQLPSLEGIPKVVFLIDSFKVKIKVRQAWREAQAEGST
Source text: ASN001 has one chiral center. The individual enantiomers of ASN001 are both potent and selective inhibitors of CYP17. […] Similar relative potency results for the racemate and enantiomers have also been obtained experimentally in rat testicular microsomes and human H295R adrenocortical carcinoma cells. In summary ASN001 and its individual enantiomers are all potent inhibitors of CYP17 activity and testosterone synthesis in biochemical and cellular functional assays.
(§1) General procedures for the in vitro and in vivo studies discussed above have been described previously in WO 2013/049559 (published in the US as United States Patent Application Publication No. US 2013/0085148; see e.g. Examples 84-88). The inhibitory effect of compounds on human CYP17 lyase activity in vitro in human testicular microsomes (CelsisIVT, US) was determined in a similar manner to the CYP17 lyase assay in rat testicular microsomes described previously as Example 84 in WO 2013/049559 (published in the US as United States Patent Application Publication No. US 2013/0085148), except that human testicular microsomes were used instead of rat testicular microsomes.

CYP17 C17,20-lyase [3] = target: T1, CYP17 C17,20-lyase; assay: Cell-based CYP17 C17,20-lyase assay in H295R cells
Protocol: Cell-Based CYP17 C17,20-Lyase Assay
To test the inhibitory effect of compounds on CYP17 C17,20-lyase activity in cells, human adrenocortical carcinoma H295R cells (ATCC) were used. These cells have intact testosterone synthesis pathway and are ideal to study the effect of compounds on various enzymes involved in this pathway. The cell-based CYP17 C17,20-Lyase assay was conducted as described previously as Example 85 in WO 2013/049559 (published in the US as United States Patent Application Publication No. US 2013/0085148).

corticosterone synthesis = assay: Cell-based functional assay: corticosterone synthesis inhibition in H295R cells; design: species or system human
Protocol: Cell-Based Functional Assay: Corticosterone Synthesis Inhibition
The H295R cell based assay was used to examine effects on corticosterone synthesis. The DetectX® Corticosterone Immunoassay kit (Arbor Assays, Cat. No. K014-H1) measures Corticosterone present in extracted dried fecal samples, serum, plasma and tissue culture media samples.
(§2) Standard Preparation • 1. Label seven test tubes as #1 through #7. • 2. Pipet 450 μL of Assay Buffer into tube #1 and 250 μL into tubes #2 to #7. • 3. The corticosterone stock solution contains an organic solvent. Pre-rinse the pipet tip several times to ensure accurate delivery. • 4. Carefully add 50 μL of the corticosterone stock solution to tube #1 and vortex completely. • 5. Take 250 μL of the corticosterone solution in tube #1 and add it to tube #2 and vortex completely. • 6. Repeat the serial dilutions for tubes #3 through #7. • 7. The concentration of corticosterone in tubes 1 through 7 will be 5,000, 2,500, 1,250, 625, 312.5, 156.25 and 78.125 pg/mL.
(§3) Assay Protocol • 1. Subculture H295R (Human Adreno Cortical Carcinoma cell line ATCC# CRL-2128) cells and seed 60,000 cells per well in a poly-d lysine plate and leave it overnight at 37° C. • 2. Add 50 μl of serially diluted compounds from a 5×plate. • 3. Incubate overnight at 37° C. (˜16 hours). • 4. Collect media/cell culture supernatant and dilute appropriately for Corticosterone estimation (1:10 Diluted with assay buffer). • 5. Pipet 50 μL of samples or standards into wells in the plate. • 6. Pipet 75 μL of Assay Buffer into the non-specific binding (NSB) wells. • 7. Pipet 50 μL of Assay Buffer into wells to act as maximum binding wells (Bo or 0 pg/mL). • 8. Add 25 μL of the DetectX® Corticosterone Conjugate to each well using a repeater pipet. • 9. Add 25 μL of the DetectX® Corticosterone Antibody to each well, except the NSB wells, using a repeater pipet. • 10. Gently tap the sides of the plate to ensure adequate mixing of the reagents. Cover the plate with the plate sealer and shake at room temperature for 1 hour. If the plate is not shaken signals bound will be approximately 45% lower. • 11. Aspirate the plate and wash each well 4 times with 300 μL wash buffer. Tap the plate dry on clean absorbent towels. • 12. Add 100 μL of the TMB Substrate to each well, using a repeater pipet. • 13. Incubate the plate at room temperature for 30 minutes without shaking. • 14. Add 50 μL of the Stop Solution to each well, using a repeater or a multichannel pipet. • 15. Read the optical density generated from each well in a plate reader capable of reading at 450 nm. • 16. Use the plate reader's built-in 4PLC software capabilities to calculate Corticosterone concentration for each sample.

cortisol synthesis = assay: Cell-based functional assay: cortisol synthesis inhibition in H295R cells; design: species or system human
Protocol: Cell-Based Functional Assay: Cortisol Synthesis Inhibition
The H295R cell based assay was used to examine effects on cortisol synthesis. The DetectX® Cortisol Immunoassay kit (Arbor Assays, Cat. No. K003-H1) measures Cortisol present in extracted dried fecal samples, serum, plasma and tissue culture media samples.
as §2, with “Cortisol” for “corticosterone”
as §3, with “Cortisol” for “Corticosterone”, “diluted” for “Diluted”, “(B0” for “(Bo”

male SD rats [4] = settings: prior test, 30 mg/kg QD PO x 14 days; Example 88 of WO 2013/049559; cited from earlier work
male SD rats [5] = assay: Prostate and seminal vesicle weights after 14 days repeat oral administration; assay type: in vivo
Protocol: The effect of ASN001 and its individual enantiomers on prostate and seminal vesicle weights was evaluated after 14 days repeat oral administration in male SD rats. ASN001 caused a dose-dependent reduction of the prostate and seminal vesicle weights.
(In a prior test using ASN001 at 30 mg/kg once a day (QD) PO×14 days, not made in comparison to either enantiomer, but using the same general protocol, the reduction in prostate and seminal vesicle weights was “about 50%” and “about 60%” respectively. See Example 88 of WO 2013/049559.)
as §1

testosterone synthesis = assay: Cell-based functional assay: testosterone synthesis inhibition in H295R cells; design: species or system human; settings: for pEC50: Homo sapiens, NCI-H295R, H295R cells; for pIC50 / testosterone/cortisol synthesis inhibition ratio: human adrenal NCI-H295R cells
Protocol: Cell-Based Functional Assay: Testosterone Synthesis Inhibition
To understand how the inhibition of CYP17 lyase impacts testosterone synthesis, testosterone levels were measured in H295R adrenocortical carcinoma cells. This assay was conducted as described previously as Example 86 in WO 2013/049559 (published in the US as United States Patent Application Publication No. US 2013/0085148).

[6] = H295R cells, average of multiple runs, read-out: CYP17 C17,20-lyase average IC50
[7] = human adrenal NCI-H295R cells, read-out: 17,20-Lyase IC50
[8] = Homo sapiens, NCI-H295R, H295R cells, read-out: corticosterone synthesis inhibition IC50
[9] = human adrenal NCI-H295R cells, read-out: corticosterone synthesis IC50
[10] = Homo sapiens, NCI-H295R, H295R cells, read-out: cortisol synthesis inhibition IC50
[11] = human adrenal NCI-H295R cells, read-out: cortisol synthesis IC50

CC(O)(c1ccncc1)c1cnc(-c2ccc(F)cc2)s1 (racemic) [ASN001, 1-(2-(4-fluorophenyl)thiazol-5-yl)-1-(pyridin-4-yl)ethanol]
bioavailability ([1]; rat and other non-clinical species): quite high | food effect ([1]; rats): does not exhibit a food effect | pIC50 (CYP17 C17,20-lyase [2]): 7.82 | pIC50 (CYP17 C17,20-lyase [3]; [6]): 7.30 | difference between C17,20-lyase inhibition and cortisol biosynthesis inhibition (CYP17 C17,20-lyase [3]; adrenal NCI-H295R cells): ~7 fold | pIC50 (CYP17 C17,20-lyase [3]; [7]): 7.30 | pIC50 (corticosterone synthesis; [8]): 5.55 | pIC50 (corticosterone synthesis; [9]): 5.55 | pIC50 (cortisol synthesis; [10]): 6.46 | pIC50 (cortisol synthesis; [11]): 6.46 | reduction in prostate weight (male SD rats [4]): about 50% | reduction in seminal vesicle weight (male SD rats [4]): about 60% | reduction in prostate weight (male SD rats [5]; 10 mg/kg BID PO x 14 days): 24% | reduction in seminal vesicle weight (male SD rats [5]; 10 mg/kg BID PO x 14 days): 48% | reduction in prostate weight (male SD rats [5]; 30 mg/kg QD PO x 14 days): 29% | reduction in seminal vesicle weight (male SD rats [5]; 30 mg/kg QD PO x 14 days): 43% | pEC50 (testosterone synthesis): 7.27 | pIC50 (testosterone synthesis): 7.27 | testosterone/cortisol synthesis inhibition ratio (testosterone synthesis): 6.5

CC(O)(c1ccncc1)c1cnc(-c2ccc(F)cc2)s1 (single isomer, unassigned; (+)) [(+)ASN001]
pIC50 (CYP17 C17,20-lyase [2]): 7.20

C[C@]12CC[C@H](O)CC1=CC[C@@H]1[C@@H]2CC[C@]2(C)C(c3cccnc3)=CC[C@@H]12 [Abiraterone, abiraterone, reference compound]
pIC50 (CYP17 C17,20-lyase [3]; [6]): 8.55 | pIC50 (CYP17 C17,20-lyase [3]; [7]): 8.52 | pIC50 (corticosterone synthesis; [8]): 7.19 | pIC50 (corticosterone synthesis; [9]): 7.19 | pIC50 (cortisol synthesis; [10]): 9.17 | pIC50 (cortisol synthesis; [11]): > 9.00 | pEC50 (testosterone synthesis): 8.30 | pIC50 (testosterone synthesis): 8.30 | testosterone/cortisol synthesis inhibition ratio (testosterone synthesis): <0.2

CC(O)(c1ccncc1)c1cnc(-c2ccc(F)cc2)s1 (single isomer, unassigned; (-)) [(−)ASN001]
pIC50 (CYP17 C17,20-lyase [2]): 8.10 | reduction in prostate weight (male SD rats [5]; 10 mg/kg BID PO x 14 days): 30% | reduction in seminal vesicle weight (male SD rats [5]; 10 mg/kg BID PO x 14 days): 31% | reduction in prostate weight (male SD rats [5]; 15 mg/kg QD PO x 14 days): 17% | reduction in seminal vesicle weight (male SD rats [5]; 15 mg/kg QD PO x 14 days): 27%
